# Key:
# Assay in all cases: relative viability (nuclei count vs DMSO), 5 days (fraction); higher = more cells survive
# [1] = tested on: CAL-12T
# Method in brief: (§1)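 Nuclei were stained with Hoechst during a one-step fixation (final 0.05% Triton X-100, 1% formaldehyde, 1 ug/ml Hoechst) carried out 5 days after dosing, then counted on 4× images. The cells, lung cancer lines in 1536-well plates, had been dosed by pin tool the day after seeding with one drug alone or a fixed anchor-drug dose plus five library-drug doses (not always all listed) in √10 steps. Relative viability is the nuclei count in treated wells divided by that in vehicle wells, and each value is the median of duplicate plates.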
# [2] = tested on: LCLC-103H
# Method in brief: as §1
# [3] = tested on: HCC-366
# Method in brief: as §1
# [4] = tested on: SW 1573
# Method in brief: as §1
# [5] = tested on: HOP-62
# Method in brief: as §1
# [6] = tested on: NCI-H1355
# Method in brief: as §1
# [7] = tested on: COR-L 105
# Method in brief: as §1
# [8] = tested on: HCC-827
# Method in brief: as §1
# [9] = tested on: NCI-H727
# Method in brief: as §1
# [10] = tested on: NCI-H1755
# Method in brief: as §1
# [11] = tested on: A-427
# Method in brief: as §1
# [12] = tested on: NCI-H2009
# Method in brief: as §1
# [13] = tested on: NCI-H23
# Method in brief: as §1
# [14] = tested on: EMC-BAC-2
# Method in brief: as §1
# [15] = tested on: NCI-H522
# Method in brief: as §1
# [16] = tested on: NCI-H2228
# Method in brief: as §1
# [17] = tested on: NCI-H1915
# Method in brief: as §1
# [18] = tested on: NCI-H1437
# Method in brief: as §1
# [19] = tested on: NCI-H1395
# Method in brief: as §1
# [20] = tested on: SK-LU-1
# Method in brief: as §1
# [21] = tested on: NCI-H460
# Method in brief: as §1
# [22] = tested on: NCI-H1975
# Method in brief: as §1
# [23] = tested on: HARA
# Method in brief: as §1
smiles,measurement,setting,value
COc1cc(N2CCC(C(N)=O)CC2)ccc1Nc1nc(N)c(Cl)c(Nc2ccccc2S(=O)(=O)C(C)C)n1 [HG-5-88-01] + O=C(CCCCCCC(=O)Nc1ccccc1)NO [Vorinostat] (partner 1 µM),relative viability,[1]; first compound 0.04 µM,0.747
same,relative viability,[1]; first compound 0.1265 µM,0.89
same,relative viability,[1]; first compound 0.4 µM,0.623
same,relative viability,[1]; first compound 1.265 µM,0.811
same,relative viability,[1]; first compound 4 µM,0.49
same,relative viability,[2]; first compound 0.04 µM,0.826
same,relative viability,[2]; first compound 0.1265 µM,0.767
same,relative viability,[2]; first compound 0.4 µM,0.65
same,relative viability,[2]; first compound 1.265 µM,0.757
same,relative viability,[2]; first compound 4 µM,0.605
same,relative viability,[3]; first compound 0.04 µM,0.438
same,relative viability,[3]; first compound 0.1265 µM,0.452
same,relative viability,[3]; first compound 0.4 µM,0.339
same,relative viability,[3]; first compound 1.265 µM,0.336
same,relative viability,[3]; first compound 4 µM,0.283
same,relative viability,[4]; first compound 0.04 µM,0.657
same,relative viability,[4]; first compound 0.1265 µM,0.896
same,relative viability,[4]; first compound 0.4 µM,0.816
same,relative viability,[4]; first compound 1.265 µM,0.755
same,relative viability,[4]; first compound 4 µM,0.851
same,relative viability,[5]; first compound 0.04 µM,0.579
same,relative viability,[5]; first compound 0.1265 µM,0.799
same,relative viability,[5]; first compound 0.4 µM,0.611
same,relative viability,[5]; first compound 1.265 µM,0.728
same,relative viability,[5]; first compound 4 µM,0.668
same,relative viability,[6]; first compound 0.04 µM,0.59
same,relative viability,[6]; first compound 0.1265 µM,0.62
same,relative viability,[6]; first compound 0.4 µM,0.626
same,relative viability,[6]; first compound 1.265 µM,0.587
same,relative viability,[6]; first compound 4 µM,0.399
same,relative viability,[7]; first compound 0.04 µM,0.849
same,relative viability,[7]; first compound 0.1265 µM,0.722
same,relative viability,[7]; first compound 0.4 µM,0.847
same,relative viability,[7]; first compound 1.265 µM,0.639
same,relative viability,[7]; first compound 4 µM,0.59
same,relative viability,[8]; first compound 0.04 µM,0.829
same,relative viability,[8]; first compound 0.1265 µM,0.807
same,relative viability,[8]; first compound 0.4 µM,0.87
same,relative viability,[8]; first compound 1.265 µM,0.335
same,relative viability,[8]; first compound 4 µM,0.235
same,relative viability,[9]; first compound 0.04 µM,1.29
same,relative viability,[9]; first compound 0.1265 µM,1.18
same,relative viability,[9]; first compound 0.4 µM,1.19
same,relative viability,[9]; first compound 4 µM,1.1
same,relative viability,[10]; first compound 0.04 µM,0.79
same,relative viability,[10]; first compound 0.1265 µM,0.804
same,relative viability,[10]; first compound 0.4 µM,0.715
same,relative viability,[10]; first compound 1.265 µM,0.748
same,relative viability,[10]; first compound 4 µM,0.744
same,relative viability,[11]; first compound 0.04 µM,0.892
same,relative viability,[11]; first compound 0.1265 µM,0.859
same,relative viability,[11]; first compound 0.4 µM,0.884
same,relative viability,[11]; first compound 1.265 µM,0.912
same,relative viability,[11]; first compound 4 µM,0.726
same,relative viability,[12]; first compound 0.04 µM,0.704
same,relative viability,[12]; first compound 0.1265 µM,0.796
same,relative viability,[12]; first compound 0.4 µM,0.694
same,relative viability,[12]; first compound 1.265 µM,0.616
same,relative viability,[12]; first compound 4 µM,0.647
same,relative viability,[13]; first compound 0.04 µM,0.793
same,relative viability,[13]; first compound 0.1265 µM,0.752
same,relative viability,[13]; first compound 0.4 µM,0.609
same,relative viability,[13]; first compound 1.265 µM,0.538
same,relative viability,[13]; first compound 4 µM,0.307
same,relative viability,[14]; first compound 0.04 µM,0.503
same,relative viability,[14]; first compound 0.1265 µM,0.442
same,relative viability,[14]; first compound 0.4 µM,0.354
same,relative viability,[14]; first compound 1.265 µM,0.518
same,relative viability,[14]; first compound 4 µM,0.448
same,relative viability,[15]; first compound 0.04 µM,0.923
same,relative viability,[15]; first compound 0.1265 µM,0.855
same,relative viability,[15]; first compound 0.4 µM,0.784
same,relative viability,[15]; first compound 1.265 µM,0.667
same,relative viability,[15]; first compound 4 µM,0.671
same,relative viability,[16]; first compound 0.04 µM,0.731
same,relative viability,[16]; first compound 0.1265 µM,0.421
same,relative viability,[16]; first compound 0.4 µM,0.3
same,relative viability,[16]; first compound 1.265 µM,0.348
same,relative viability,[16]; first compound 4 µM,0.379
same,relative viability,[17]; first compound 0.04 µM,0.476
same,relative viability,[17]; first compound 0.1265 µM,0.525
same,relative viability,[17]; first compound 0.4 µM,0.525
same,relative viability,[17]; first compound 1.265 µM,0.57
same,relative viability,[17]; first compound 4 µM,0.386
same,relative viability,[18]; first compound 0.04 µM,0.899
same,relative viability,[18]; first compound 0.1265 µM,0.897
same,relative viability,[18]; first compound 0.4 µM,0.645
same,relative viability,[18]; first compound 1.265 µM,0.78
same,relative viability,[18]; first compound 4 µM,0.613
same,relative viability,[19]; first compound 0.04 µM,0.69
same,relative viability,[19]; first compound 0.1265 µM,0.681
same,relative viability,[19]; first compound 0.4 µM,0.733
same,relative viability,[19]; first compound 1.265 µM,0.832
same,relative viability,[19]; first compound 4 µM,0.597
same,relative viability,[20]; first compound 0.04 µM,0.783
same,relative viability,[20]; first compound 0.1265 µM,0.82
same,relative viability,[20]; first compound 0.4 µM,0.789
same,relative viability,[20]; first compound 1.265 µM,0.773
same,relative viability,[20]; first compound 4 µM,0.547
same,relative viability,[21]; first compound 0.04 µM,0.72
same,relative viability,[21]; first compound 0.1265 µM,0.737
same,relative viability,[21]; first compound 0.4 µM,0.678
same,relative viability,[21]; first compound 1.265 µM,0.783
same,relative viability,[21]; first compound 4 µM,0.595
same,relative viability,[22]; first compound 0.04 µM,0.734
same,relative viability,[22]; first compound 0.1265 µM,0.711
same,relative viability,[22]; first compound 0.4 µM,0.689
same,relative viability,[22]; first compound 1.265 µM,0.612
same,relative viability,[22]; first compound 4 µM,0.35
same,relative viability,[23]; first compound 0.04 µM,0.532
same,relative viability,[23]; first compound 0.1265 µM,0.526
same,relative viability,[23]; first compound 0.4 µM,0.585
same,relative viability,[23]; first compound 1.265 µM,0.577
same,relative viability,[23]; first compound 4 µM,0.507
